Assay results published in patent EP4592290A1, “CARBONYL FUSED HETEROCYCLIC DERIVATIVE USED AS UBIQUITIN-SPECIFIC PROTEASE INHIBITOR” (Chia Tai Tianqing Pharmaceutical Group Co., Ltd., priority 2022, dated 2024).

Tests used:
USP1/UAF1 = USP1/UAF1 (Homo sapiens, UniProt O94782); test: Assay on USP1/UAF1 enzymatic inhibitory activity (Ub-Rhodamine); format: biochemical; conditions: USP1/UAF1 protein 10 nM, Ub-Rhodamine 300 nM, 30 min pre-incubation, 90 min reaction
Protocol: A USP1/UAF1 protein solution (with a concentration of 10 nM) was added to assay wells at 10 µL/well, and different compounds dissolved in DMSO were separately added to the assay wells using a nanoliter pipettor, such that the final concentrations of the compounds were 1000 nM-0.24 nM. The wells were set in duplicate, and a control well was set. After incubation of the system described above at room temperature for 30 min, Ub-Rhodamine (with a concentration of 300 nM) was added to the assay wells at 10 µL/well. The mixtures were reacted at room temperature for 90 min, and then the plate was read using a PerkinElmer Envision multifunctional microplate reader (Ex. 490 nm/Em. 520 nm). IC50 was calculated by four-parameter fitting.

MDA-MB-436 cells = test: Assay on inhibitory activity for MDA-MB-436 cell proliferation (CCK-8); format: cell-based; conditions: Homo sapiens, 168 h, 7 days of incubation, CCK-8, absorbance at 450 nm
Protocol: MDA-MB-436 cells in a good growth state were collected into a centrifuge tube, adjusted to a cell density of 10^4 cells/mL, and seeded in a 96-well plate (100 µL/well), and the plate was incubated overnight in a cell incubator. Compounds were added using a nanoliter pipettor, such that the final concentrations of the compounds were 1000 nM-0.457 nM. The wells were set in duplicate, and a control well was set. After another 7 days of incubation in the cell incubator, the detection reagent CCK-8 (manufacturer: Dojindo Laboratories; 10 µL/well) was added. After 2 h of incubation in the cell incubator, absorbance values were detected at 450 nm using an Envision microplate reader, the four-parameter analysis was performed, the dose-response curves were fit, and IC50 was calculated. The experimental results are shown in Table 1, where A represents 0 nM < IC50 ≤ 50 nM; B represents 50 nM < IC50 ≤ 100 nM; C represents 100 nM < IC50 ≤ 1000 nM; and D represents 1000 nM < IC50. Table 1. Inhibitory activity for MDA-MB-436 cell proliferation

USP1/UAF1, sequence (O94782 whole entry): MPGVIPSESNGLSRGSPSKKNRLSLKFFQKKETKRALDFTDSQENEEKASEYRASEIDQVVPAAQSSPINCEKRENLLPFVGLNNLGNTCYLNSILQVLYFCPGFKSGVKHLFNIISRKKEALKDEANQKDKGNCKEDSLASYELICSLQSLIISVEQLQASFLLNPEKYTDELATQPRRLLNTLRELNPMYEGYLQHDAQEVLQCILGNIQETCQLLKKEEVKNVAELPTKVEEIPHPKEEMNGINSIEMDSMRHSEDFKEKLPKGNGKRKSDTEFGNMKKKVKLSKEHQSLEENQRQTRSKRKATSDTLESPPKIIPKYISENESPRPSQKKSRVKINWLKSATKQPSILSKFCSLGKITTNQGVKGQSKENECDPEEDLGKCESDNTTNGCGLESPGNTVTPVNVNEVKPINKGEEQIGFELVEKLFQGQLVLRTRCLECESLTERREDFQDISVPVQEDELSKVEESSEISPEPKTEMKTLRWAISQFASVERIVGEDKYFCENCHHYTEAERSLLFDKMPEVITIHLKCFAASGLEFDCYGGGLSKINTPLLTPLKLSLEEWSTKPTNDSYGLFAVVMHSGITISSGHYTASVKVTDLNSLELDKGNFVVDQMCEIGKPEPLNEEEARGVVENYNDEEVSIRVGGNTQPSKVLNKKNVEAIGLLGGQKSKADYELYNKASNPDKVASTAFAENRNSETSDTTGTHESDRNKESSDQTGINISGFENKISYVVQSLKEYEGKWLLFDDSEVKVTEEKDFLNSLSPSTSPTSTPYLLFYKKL
USP1/UAF1, sequence (Q8TAF3 whole entry partner): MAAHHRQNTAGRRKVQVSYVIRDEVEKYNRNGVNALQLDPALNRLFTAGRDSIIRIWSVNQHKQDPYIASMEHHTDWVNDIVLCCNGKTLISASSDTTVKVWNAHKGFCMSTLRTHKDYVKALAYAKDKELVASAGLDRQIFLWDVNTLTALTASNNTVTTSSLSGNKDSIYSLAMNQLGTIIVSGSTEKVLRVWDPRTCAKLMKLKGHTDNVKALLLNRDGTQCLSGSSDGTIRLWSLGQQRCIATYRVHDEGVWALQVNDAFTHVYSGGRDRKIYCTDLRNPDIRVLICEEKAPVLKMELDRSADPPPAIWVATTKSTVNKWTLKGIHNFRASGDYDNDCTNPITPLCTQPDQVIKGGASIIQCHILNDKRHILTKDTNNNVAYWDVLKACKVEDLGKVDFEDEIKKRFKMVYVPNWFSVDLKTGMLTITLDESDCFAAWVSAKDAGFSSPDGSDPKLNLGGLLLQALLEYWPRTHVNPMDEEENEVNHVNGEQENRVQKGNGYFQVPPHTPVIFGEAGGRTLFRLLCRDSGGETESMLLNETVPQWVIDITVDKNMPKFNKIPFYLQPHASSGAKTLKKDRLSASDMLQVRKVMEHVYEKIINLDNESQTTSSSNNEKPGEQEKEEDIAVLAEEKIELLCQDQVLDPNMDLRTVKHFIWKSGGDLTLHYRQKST

COc1ncnc(C2CC2)c1-c1ncc2c(c1F)n(Cc1ccc(-c3nc(C(F)(F)F)cn3C)cc1)c(=O)n2C [Example 3]
IC50 (USP1/UAF1): < 50 nM
IC50 (MDA-MB-436 cells): < 50 nM

[2H]C([2H])([2H])n1c(=O)n(Cc2ccc(-n3nc(C(F)(F)F)cc3C)cc2)c2c(F)c(-c3c(OC)ncnc3C3CC3)ncc21 [Example 15]
IC50 (USP1/UAF1): < 50 nM
IC50 (MDA-MB-436 cells): 50 to 100 nM

[2H]C([2H])([2H])n1c(=O)n(Cc2ccc(-c3nc(C(F)(F)F)cn3C(C)C)cc2)c2c(F)c(-c3c(OC)ncnc3C3CC3)ncc21 [Example 16]
IC50 (USP1/UAF1): < 50 nM
IC50 (MDA-MB-436 cells): < 50 nM

[2H]C([2H])([2H])n1c(=O)n(Cc2ccc(-n3nc(C(C)(F)F)cc3C)cc2)c2c(F)c(-c3c(OC)ncnc3C3CC3)ncc21 [Example 17]
IC50 (USP1/UAF1): 50 to 100 nM
IC50 (MDA-MB-436 cells): 50 to 100 nM
